# Measurements reported in PMC10313671, “Accelerating the prediction and discovery of peptide hydrogels with human-in-the-loop” (Nature Communications, 2023).
# Where a SMILES comes first, the peptide text is derived from it.
# Assays:
# [1] = Transmission electron microscope (negative staining) of peptide assemblies; conditions: for Morphology: TEM, negative staining with uranyl acetate, 120 kV; for morphology by TEM (in words): aqueous solution or hydrogel, negative staining
# Protocol: We used the negative staining technique to observe the morphologies formed by peptides. A micropipette was used to load 10 μL of sample solution to a carbon-coated copper grid, and we used a piece of filter paper to remove the excess solution. After rinsing the grid with the deionized water, we used uranyl acetate to stain the sample for 1 minute and then rinsed the grid with deionized water again.
# [2] = Peptide hydrogel formation, vial-inverting method; assay type: physicochemical; set-up: key to EXP / GELATION: 0: no hydrogel; 1: hydrogel; conditions: for State: ultrasonication, standing 48 h; for State / GELATION: vial-inverting method; for Concentration: concentration at which the state was recorded: lowest of 30, 60, 90, 120 mM that gave a gel, 120 mM for non-gelating peptides; for GELATION: 1 = hydrogel, 0 = no hydrogel
# Outline: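 Gelation judged by vial inversion, a non-flowing self-supporting sample counting as hydrogel, after 48 h standing. Peptide in water at 30 mM first, escalating to 60, 90 and 120 mM if no gel; pH set to 6.5–8.5 by stepwise 1 N NaOH, each step sonicated briefly.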
# [3] = 90 mM peptide in ultrapure water, pH 6.5-8.5 (1 N NaOH), no gel at lower concentrations
# [4] = 120 mM peptide (highest tested) in ultrapure water, pH 6.5-8.5 (1 N NaOH), precipitate, sol, suspension = no gel
# [5] = 30 mM peptide in ultrapure water, pH adjusted to 6.5-8.5 with 1 N NaOH, concentration raised 30/60/90/120 mM until gelation
# [6] = 60 mM peptide in ultrapure water, pH 6.5-8.5 (1 N NaOH), no gel at 30 mM
SMILES,Concentration [2],Morphology ([1]; line of the table gives 120 mM),"State [2, 4]",GELATION ([2]; peptide concentration 120 mM),further results
CSCC[C@H](NC(=O)[C@@H](N)CCSC)C(=O)N[C@@H](CC(C)C)C(=O)N[C@@H](CC(C)C)C(=O)O [MMLL] (H-MMLL-OH),90000 µM,–,–,–,"Morphology ([1]; line of the table gives 90 mM): sheet; State [2, 3]: gel; GELATION ([2]; peptide concentration 90 mM): 1"
CSCC[C@H](NC(=O)[C@H](CCSC)NC(=O)[C@H](CCSC)NC(=O)[C@@H](N)CCSC)C(=O)O [MMMM] (H-MMMM-OH),120000 µM,hybrid(sphere+fibre),gel,1,–
CSCC[C@H](NC(=O)[C@@H](N)CCSC)C(=O)N[C@H](C(=O)N[C@H](C(=O)O)C(C)C)C(C)C [MMVV] (H-MMVV-OH),30000 µM,–,–,–,"Morphology ([1]; line of the table gives 30 mM): particle; State [2, 5]: gel; GELATION ([2]; peptide concentration 30 mM): 1"
CSCC[C@H](NC(=O)[C@@H](N)CCSC)C(=O)N[C@@H](Cc1ccc(O)cc1)C(=O)N[C@@H](Cc1ccc(O)cc1)C(=O)O [MMYY] (H-MMYY-OH),120000 µM,particle,suspension,0,–
CSCC[C@H](N)C(=O)N[C@H](C(=O)N[C@@H](Cc1ccccc1)C(=O)N1CCC[C@H]1C(=O)O)C(C)C [MVFP] (H-MVFP-OH),60000 µM,–,–,–,"Morphology ([1]; line of the table gives 60 mM): fibre; State [2, 6]: gel; GELATION ([2]; peptide concentration 60 mM): 1"
CSCC[C@H](N)C(=O)N[C@H](C(=O)N[C@@H](CCC(N)=O)C(=O)NCC(=O)O)C(C)C [MVQG] (H-MVQG-OH),120000 µM,aggregates,suspension,0,–
NC(=O)C[C@H](NC(=O)[C@H](CC(N)=O)NC(=O)[C@H](CC(N)=O)NC(=O)[C@@H](N)CC(N)=O)C(=O)O [NNNN] (H-NNNN-OH),120000 µM,aggregates,sol,0,–
CC[C@H](C)[C@H](NC(=O)[C@@H](NC(=O)[C@@H](N)CC(N)=O)[C@@H](C)O)C(=O)N[C@@H](Cc1ccccc1)C(=O)O [NTIF] (H-NTIF-OH),60000 µM,–,–,–,"Morphology ([1]; line of the table gives 60 mM): fibre; State [2, 6]: gel; GELATION ([2]; peptide concentration 60 mM): 1"
CC(C)[C@H](NC(=O)[C@@H](N)CC(N)=O)C(=O)N[C@@H](Cc1ccccc1)C(=O)N[C@@H](Cc1c[nH]cn1)C(=O)O [NVFH] (H-NVFH-OH),120000 µM,aggregates,suspension,0,–
NC(=O)C[C@H](N)C(=O)N[C@@H](Cc1c[nH]c2ccccc12)C(=O)N[C@@H](Cc1c[nH]c2ccccc12)C(=O)N[C@@H](Cc1ccccc1)C(=O)O [NWWF] (H-NWWF-OH),30000 µM,–,–,–,"Morphology ([1]; line of the table gives 30 mM): sphere; State [2, 5]: gel; GELATION ([2]; peptide concentration 30 mM): 1"
O=C(CNC(=O)[C@@H]1CCCN1)N[C@@H](Cc1c[nH]c2ccccc12)C(=O)N[C@@H](Cc1c[nH]c2ccccc12)C(=O)O [PGWW] (H-PGWW-OH),120000 µM,aggregates,sol,0,morphology by TEM (in words) [1]: aggregates with different sizes
CC[C@H](C)[C@H](NC(=O)[C@@H]1CCCN1)C(=O)N[C@@H](Cc1ccccc1)C(=O)N[C@@H](Cc1ccc(O)cc1)C(=O)O [PIFY] (H-PIFY-OH),30000 µM,–,–,–,"Morphology ([1]; line of the table gives 30 mM): sphere; State [2, 5]: gel; GELATION ([2]; peptide concentration 30 mM): 1"
CSCC[C@H](NC(=O)[C@@H]1CCCN1)C(=O)N[C@@H](Cc1ccccc1)C(=O)N[C@@H](Cc1ccc(O)cc1)C(=O)O [PMFY] (H-PMFY-OH),60000 µM,–,–,–,"Morphology ([1]; line of the table gives 60 mM): sheet; State [2, 6]: gel; GELATION ([2]; peptide concentration 60 mM): 1"
O=C(O)[C@@H]1CCCN1C(=O)[C@@H]1CCCN1C(=O)[C@@H]1CCCN1C(=O)[C@@H]1CCCN1 [PPPP] (H-PPPP-OH),120000 µM,particle,suspension,0,–
CC(C)[C@H](NC(=O)[C@@H]1CCCN1)C(=O)N[C@@H](Cc1ccccc1)C(=O)N[C@@H](Cc1c[nH]c2ccccc12)C(=O)O [PVFW] (H-PVFW-OH),60000 µM,–,–,–,"Morphology ([1]; line of the table gives 60 mM): hybrid(needle+fibre); State [2, 6]: gel; GELATION ([2]; peptide concentration 60 mM): 1"
CC(C)[C@H](NC(=O)[C@@H]1CCCN1)C(=O)N[C@@H](Cc1ccccc1)C(=O)N[C@@H](Cc1ccc(O)cc1)C(=O)O [PVFY] (H-PVFY-OH),30000 µM,–,–,–,"Morphology ([1]; line of the table gives 30 mM): needle; State [2, 5]: gel; GELATION ([2]; peptide concentration 30 mM): 1"

SMILES,Concentration [2],Morphology ([1]; line of the table gives 120 mM),"State [2, 4]",GELATION ([2]; peptide concentration 120 mM),further results
CC[C@H](C)[C@H](NC(=O)[C@@H](NC(=O)[C@@H](NC(=O)[C@@H]1CCCN1)C(C)C)[C@@H](C)CC)C(=O)O [PVII] (H-PVII-OH),90000 µM,–,–,–,"Morphology ([1]; line of the table gives 90 mM): fibre; State [2, 3]: gel; GELATION ([2]; peptide concentration 90 mM): 1"
O=C(O)[C@H](CS)NC(=O)[C@H](Cc1c[nH]c2ccccc12)NC(=O)[C@H](Cc1c[nH]c2ccccc12)NC(=O)[C@@H]1CCCN1 [PWWC] (H-PWWC-OH),120000 µM,aggregates,suspension,0,–
O=C(O)[C@H](Cc1ccc(O)cc1)NC(=O)[C@H](Cc1c[nH]c2ccccc12)NC(=O)[C@H](Cc1c[nH]c2ccccc12)NC(=O)[C@@H]1CCCN1 [PWWY] (H-PWWY-OH),120000 µM,aggregates,sol,0,–
O=C(O)[C@H](Cc1c[nH]c2ccccc12)NC(=O)[C@H](Cc1ccc(O)cc1)NC(=O)[C@H](Cc1c[nH]c2ccccc12)NC(=O)[C@@H]1CCCN1 [PWYW] (H-PWYW-OH),120000 µM,aggregates,gel,1,–
O=C(O)[C@H](Cc1ccc(O)cc1)NC(=O)[C@H](Cc1ccc(O)cc1)NC(=O)[C@H](Cc1c[nH]c2ccccc12)NC(=O)[C@@H]1CCCN1 [PWYY] (H-PWYY-OH),60000 µM,–,–,–,"Morphology ([1]; line of the table gives 60 mM): aggregates; State [2, 6]: gel; GELATION ([2]; peptide concentration 60 mM): 1"
CC[C@H](C)[C@H](NC(=O)[C@H](Cc1ccc(O)cc1)NC(=O)[C@H](Cc1ccc(O)cc1)NC(=O)[C@@H]1CCCN1)C(=O)O [PYYI] (H-PYYI-OH),120000 µM,aggregates,sol,0,–
CC[C@H](C)[C@H](NC(=O)[C@@H](NC(=O)[C@H](Cc1c[nH]cn1)NC(=O)[C@@H](N)CCC(N)=O)[C@@H](C)CC)C(=O)O [QHII] (H-QHII-OH),120000 µM,aggregates,sol,0,–
CSCC[C@H](NC(=O)[C@@H](N)CCC(N)=O)C(=O)N[C@H](C(=O)N[C@H](C(=O)O)C(C)C)C(C)C [QMVV] (H-QMVV-OH),120000 µM,aggregates,gel,1,–
N=C(N)NCCC[C@H](NC(=O)[C@H](CCCNC(=N)N)NC(=O)[C@H](CCCNC(=N)N)NC(=O)[C@@H](N)CCCNC(=N)N)C(=O)O [RRRR] (H-RRRR-OH),120000 µM,aggregates,sol,0,morphology by TEM (in words) [1]: aggregates with different sizes
CC(C)[C@H](NC(=O)[C@H](Cc1c[nH]c2ccccc12)NC(=O)[C@@H](N)CCCNC(=N)N)C(=O)N[C@@H](Cc1ccccc1)C(=O)O [RWVF] (H-RWVF-OH),120000 µM,aggregates,sol,0,morphology by TEM (in words) [1]: aggregates with different sizes
C[C@H](NC(=O)[C@@H](N)CO)C(=O)N[C@@H](Cc1c[nH]c2ccccc12)C(=O)N[C@@H](Cc1ccccc1)C(=O)O [SAWF] (H-SAWF-OH),60000 µM,–,–,–,"Morphology ([1]; line of the table gives 60 mM): fibre; State [2, 6]: gel; GELATION ([2]; peptide concentration 60 mM): 1"
CC(C)C[C@H](NC(=O)[C@@H](N)CO)C(=O)N[C@H](C(=O)N[C@H](C(=O)O)C(C)C)C(C)C [SLVV] (H-SLVV-OH),60000 µM,–,–,–,"Morphology ([1]; line of the table gives 60 mM): fibre; State [2, 6]: gel; GELATION ([2]; peptide concentration 60 mM): 1"
N[C@@H](CO)C(=O)N[C@@H](CO)C(=O)N[C@@H](Cc1ccccc1)C(=O)N[C@@H](Cc1ccccc1)C(=O)O [SSFF] (H-SSFF-OH),30000 µM,–,–,–,"Morphology ([1]; line of the table gives 30 mM): fibre; State [2, 5]: gel; GELATION ([2]; peptide concentration 30 mM): 1"
N[C@@H](CO)C(=O)N[C@@H](CO)C(=O)N[C@@H](CO)C(=O)N[C@@H](CO)C(=O)O [SSSS] (H-SSSS-OH),120000 µM,blank,suspension,0,–
C[C@@H](O)[C@H](NC(=O)[C@@H](N)CO)C(=O)N[C@@H](Cc1ccc(O)cc1)C(=O)N[C@@H](Cc1ccccc1)C(=O)O [STYF] (H-STYF-OH),60000 µM,–,–,–,"Morphology ([1]; line of the table gives 60 mM): hybrid(sphere+fibre); State [2, 6]: gel; GELATION ([2]; peptide concentration 60 mM): 1"
